Reference: patent US9205098B2, “Anti-cancer therapies” (Threshold Pharmaceuticals, Inc., priority 2004, dated 2015)

What was measured:
[1] = system: tumors derived from HS766-T human pancreatic cancer cells; experiment: HS766-T human pancreatic cancer tumor model in mice; assay type: in vivo, female NMRI nu/nu mice
Experimental: (§1) A combination of glufosfamide and gemcitabine was administered daily for 7 days to female NMRI nu/nu mice that were carrying tumors derived from HS766-T or As-PC-1 human pancreatic cancer cells. Mice were administered doses of vehicle control (0.9% sodium chloride solution, i.v.), gemcitabine (i.p.), glufosfamide (i.v.) or gemcitabine/glufosfamide combinations once daily for 7 consecutive days. A dose of 1.25 mg/kg was used as the standard dose for gemcitabine throughout the study.

[2] = system: tumors derived from As-PC-1 human pancreatic cancer cells; experiment: As-PC-1 human pancreatic cancer tumor model in mice; assay type: in vivo, female NMRI nu/nu mice; details: glufosfamide i.v., gemcitabine i.p., alone or in combination, once daily for 7 days
Experimental: as §1

[3] = system: tumors derived from type MiPaca2 human pancreatic cancer cells; experiment: MiPaca2 human pancreatic cancer tumor model in nude mice; assay type: in vivo
Experimental: A combination of glufosfamide and gemcitabine was administered to nude mice that were carrying tumors derived from type MiPaca2 human pancreatic cancer cells. Mice were administered doses of vehicle control, gemcitabine, glufosfamide, or gemcitabine/glufosfamide combinations as tabulated in Table 1 below (10 mice/group). Glufosfamide was administered i.v., daily for 14 days (Groups 1-4 and 7-12). Gemcitabine was administered at 300 mg/kg, i.p., once a week for three weeks (Groups 6 and 10-12). Gemcitabine was administered at 150 mg/kg, i.p., twice a week for three weeks (Groups 5 and 7-9).

[4] = system: pancreatic cancer cell lines; details: in vitro; cited from earlier work
[5] = system: advanced pancreatic cancer; details: patients with advanced pancreatic cancer; cited from earlier work

| SMILES | inhibitory effect on tumor progression ([1]; gemcitabine alone 1.25 mg/kg i.p. once daily for 7 days) | inhibitory effect on tumor growth [2] | onset of tumor growth compared with gemcitabine alone or vehicle control ([1]; glufosfamide 10 mg/kg i.v. once daily for 7 days) | reduction in tumor size ([3]; Group 3: glufosfamide 30 mg/kg i.v. daily for 14 days) | reduction in tumor size ([3]; Group 4: glufosfamide 100 mg/kg i.v. daily for 14 days) | activity against pancreatic cancer cell lines [4] | activity in patients [5] |
| --- | --- | --- | --- | --- | --- | --- | --- |
| Nc1ccn([C@@H]2O[C@H](CO)[C@@H](O)C2(F)F)c(=O)n1 [gemcitabine, 2′-deoxy-2′,2′-difluoro-cytidine] | only a marginal inhibitory effect | no apparent inhibitory effect on tumor growth | – | – | – | – | – |
| O=P(NCCCl)(NCCCl)O[C@@H]1O[C@H](CO)[C@@H](O)[C@H](O)[C@H]1O [glufosfamide, β-D-glucosyl-ifosfamide mustard] | – | no apparent inhibitory effect on tumor growth | dramatic delay in the onset of tumor growth | modest reduction in tumor size | modest reduction in tumor size | – | – |
| Nc1nc2[nH]cc(CCc3ccc(C(=O)N[C@@H](CCC(=O)O)C(=O)O)cc3)c2c(=O)[nH]1 [pemetrexed] | – | – | – | – | – | active | has shown activity |
